According to patent US20080261936A1, “METHODS OF REDUCING THE BODY WEIGHT OF A SUBJECT BY ADMINISTERING A FATTY ACID ESTER OF AN ESTROGEN OR ESTROGEN DERIVATIVE IN AN OIL AND COMPOSITIONS CONTAINING THE SAME” (Manhattan Pharmaceuticals, Inc., priority 2006, published 2008):

Test: Oil evaluation: solubility behavior of oleoyl-estrone, 200 mg/g in single oils
Assay type: physicochemical
Experimental: An oil evaluation was done to determine the solubility behavior of oleoyl-estrone as a function of type of oil, concentration and temperature. The solubility of oleoyl-estrone was evaluated at concentrations of 60 mg/g and 200 mg/g. […]

[1] = 200 mg/g in Captex 300-6C at 40° C.
[2] = 200 mg/g in Captex 300 EP at 40° C.
[3] = 200 mg/g in Labrafil 1944 CS at 40° C.
[4] = 200 mg/g in Safflower at 40° C.

## CCCCCCCC/C=C\CCCCCCCC(=O)Oc1ccc2c(c1)CC[C@@H]1[C@@H]2CC[C@]2(C)C(=O)CC[C@@H]12 [oleoyl-estrone, [3(Z)]-3-[(1-oxo-9-octadecenyl)oxy]-estra-1,3,5(10)-trien-17-one]
200 mg/g in Canola
  Solubility Cycled to 22° C. for 24 hr prior to 5° C. cycle for 96 hr: Dissolved
200 mg/g in Canola at 40° C.
  Solubility After 24 hr: Dissolved
  Solubility After 96 hr: Dissolved
200 mg/g in Captex 300-6C
  Solubility Cycled to 22° C. for 24 hr prior to 5° C. cycle for 96 hr: Dissolved
[1]
  Solubility After 24 hr: Dissolved
  Solubility After 96 hr: Dissolved
200 mg/g in Captex 300 EP
  Solubility Cycled to 22° C. for 24 hr prior to 5° C. cycle for 96 hr: Dissolved
[2]
  Solubility After 24 hr: Dissolved
  Solubility After 96 hr: Dissolved
200 mg/g in Corn
  Solubility Cycled to 22° C. for 24 hr prior to 5° C. cycle for 96 hr: Precipitated at 5 °C after 72 hr
200 mg/g in Corn at 40° C.
  Solubility After 24 hr: Dissolved
  Solubility After 96 hr: Dissolved
200 mg/g in Labrafac
  Solubility Cycled to 22° C. for 24 hr prior to 5° C. cycle for 96 hr: Precipitated at 5 °C after 4 hr
200 mg/g in Labrafac at 40° C.
  Solubility After 24 hr: Dissolved
  Solubility After 96 hr: Dissolved
200 mg/g in Labrafil 1944 CS
  Solubility Cycled to 22° C. for 24 hr prior to 5° C. cycle for 96 hr: Precipitated at 5 °C after 4 hr
[3]
  Solubility After 24 hr: Dissolved
  Solubility After 96 hr: Dissolved
200 mg/g in Labrafil M 125CS
  Solubility Cycled to 22° C. for 24 hr prior to 5° C. cycle for 96 hr: Precipitated at 5 °C after 24 hr
200 mg/g in Labrafil M 125CS at 40° C.
  Solubility After 96 hr: Dissolved
200 mg/g in Labrasol
  Solubility Cycled to 22° C. for 24 hr prior to 5° C. cycle for 96 hr: Precipitated at RT not tested
200 mg/g in Labrasol at 40° C.
  Solubility After 24 hr: Dissolved
  Solubility After 96 hr: Dissolved
200 mg/g in Olive
  Solubility Cycled to 22° C. for 24 hr prior to 5° C. cycle for 96 hr: Precipitated at 5 °C after 4 hr
200 mg/g in Olive at 40° C.
  Solubility After 24 hr: Dissolved
  Solubility After 96 hr: Dissolved
200 mg/g in Safflower
  Solubility Cycled to 22° C. for 24 hr prior to 5° C. cycle for 96 hr: Dissolved
[4]
  Solubility After 24 hr: Dissolved
  Solubility After 96 hr: Dissolved
200 mg/g in Sesame
  Solubility Cycled to 22° C. for 24 hr prior to 5° C. cycle for 96 hr: Precipitated at 5 °C after 5 hr
200 mg/g in Sesame at 40° C.
  Solubility After 24 hr: Dissolved
  Solubility After 96 hr: Dissolved
200 mg/g in Soybean
  Solubility Cycled to 22° C. for 24 hr prior to 5° C. cycle for 96 hr: Dissolved
200 mg/g in Soybean at 40° C.
  Solubility After 24 hr: Dissolved
  Solubility After 96 hr: Dissolved
In safflower oil, soybean oil, canola oil and the medium chain triglycerides
  Solubility and thermal stability in single oils (summary): soluble and thermally stable
